Test results published in patent publication US20240368104A1, “Novel Dialkoxynaphtho[2,3-C]Furan-1(3H)-One Derivatives and Pharmaceutical Composition For Preventing or Treating Respiratory Disease or SARS-COV-2 Infection Disease, Comprising Same” (priority 2021, published 2024).
Where two headings read alike, the source gives them in different places.

What was measured:
[1] = test system: IL-5 secretion in mouse splenocytes; assay: Inhibition of IL-5 secretion in mouse splenocytes (Concanavalin A, ELISA); format: cell-based, Balb/c mice; details: for inhibition at 1 µM: Splenocyte, read-out: IL-5 Secretion inhibitory ability (%); for IL-5 pg/ml: Concanavalin A 5 μg/mL, 48 hours
Experimental: (§1) The isolated splenocytes were diluted at a concentration of 5×10^6 cells/mL in RPMI medium containing 10% fetal bovine serum (FBS) and antibiotics (penicillin at 100 U/mL, streptomycin at 100 μg/mL), distributed at 500 μl/well in a 24 well plate, and cultured in a 37° C., 5% CO2 incubator for 48 hours. When splenocytes were distributed, an immune reaction was induced by treating with 5 μg/mL of Concanavalin A, and at this time, the splenocytes were treated with the materials selected in Experimental Example 3 at a concentration of 1 uM. First, in order to measure Th2 cytokines, the medium was collected from the 24-well plate, and only the supernatant was separated through centrifugation at 800×g for five minutes, after which 100 μl of the supernatant per well was used in an enzyme-linked immunosorbent assay (ELISA, Komabiotech) experiment so as to measure a degree of secretion of Th2 cytokines IL-4 and IL-5. A degree of inhibition against secretion of cytokines by the test material was calculated using [Equation 2] below, and the measurement results are shown in Table 7.

[2] = test system: IL-4 secretion in mouse splenocytes; assay: Inhibition of IL-4 secretion in mouse splenocytes (Concanavalin A, ELISA); format: cell-based, Balb/c mice; details: for inhibition at 1 µM: Splenocyte, read-out: IL-4 Secretion inhibitory ability (%); for IL-4 pg/ml: Concanavalin A 5 μg/mL, 48 hours
Experimental: as §1

SARS-COV-2 = assay: microbe, parasite or virus in culture; format: cell-based; parameters: SI (Selectivity Index, CC50/IC50): unit not given here; details: for SI (Selectivity Index, CC50/IC50): SARS-COV-2, values >50 assumed to be 50; for IC50: read-out: SARS-COV-2 inhibition (IC50)
[3] = test system: IL-4 secretion in RBL-2H3 cells; assay: Inhibition of IL-4 secretion in RBL-2H3 cell line (A23187 induced, ELISA); format: cell-based; details: Rattus norvegicus
Experimental: The RBL-2H3 cell line was purchased from the American Type Culture Collection (ATCC #CRL-2256). The cells were diluted at a concentration of 1×10^6 cells/ml in RPMI medium containing 15% fetal bovine serum (FBS) and antibiotics (penicillin at 100 U/mL, streptomycin at 100 μg/mL), distributed at 200 μl/well in a 48 well plate, and cultured in a 37° C., 5% CO2 incubator for 24 hours. In 24 hours later, the cells were pre-treated one hour before with a test drug and AS1517499 (STAT6 inhibitor) as a control drug, and treated with 1 uM of A23187 for six hours to induce an immune response, after which a group not containing the drug was used as a control. In order to measure a secretion level of cytokine IL-4, the medium was collected from the well plate and centrifuged at 125×g for five minutes to remove a residue, and 100 μl of the medium was used to measure an amount of IL-4 secreted from the cells by using IL-4 enzyme-linked immunosorbent assay (ELISA, Komabiotech). A degree of inhibition of cell secretion by the drug was calculated using [Equation 1] below.
First of all, 288 kinds of materials were treated at a single concentration of 10 uM so as to select 60 kinds of materials which inhibit secretion of IL-4 by 75% or more (FIG. 19).
After that, a repeated experiment and a two-concentration (10, 3 uM) test were performed using the selected 60 kinds of materials so as to select the final eight kinds, and the IC50 value was calculated and shown in Table 3.

[4] = test system: SFTS virus (KADGH; NCCP43261); assay: microbe, parasite or virus in culture; format: cell-based, severe fever with thrombocytopenia syndrome virus; parameters: SI (Selectivity Index, CC50/IC50): unit not given here; details: for SI (Selectivity Index, CC50/IC50): SFTS virus; for IC50: Severe fever with thrombocytopenia syndrome virus, Vero, 24 h, read-out: SFTSV inhibition (IC50, μM)
in vitro [5] = details: African green monkey
in vitro [6] = details: African green monkey; remark: listed apart in the source
[7] = test system: Balb/c mouse asthma model; assay: Balb/c mouse asthma model (ovalbumin), BALF IgE, IL-4, IL-5 and inflammatory cells; format: in vivo, Balb/c mice
Experimental: In detail, five-week-old Balb/c mice were purchased and acclimated for one week, after which the mice were sensitized systemically by intraperitoneal injection with 0.1% ovalbumin (OVA 1 mg/mL, Al(OH)3 20 mg/mL) at 100 μl/mouse on days 0 and 14 from a week after the acclimation. From a week (day 21) after a final systemic sensitization, the compound of Example 73 was orally administered everyday at 10 mg/kg to mice for ten days, and dexamethasone was intraperitoneally administered at 1 mg/kg as a positive control group. In one hour later, 0.2% ovalbumin solution was sprayed with a nebulizer (PARIBoy SX, GmbH, Germany) so as to be inhaled for one hour. In five hours after the final sensitization (day 30), an autopsy was performed, and 1 mL of phosphate buffer solution was flowed through a tracheotomy to collect a bronchoalveolar lavage fluid (BALF). The collected BALF was centrifuged at 3000 rpm for ten minutes, and the supernatant was used to measure bioactive materials (IL-4, IL-5), and pellets were used to measure the number of inflammatory cells. In addition, an IgE concentration in the isolated BALF was measured using IgE enzyme-linked immunosorbent assay (ELISA, Komabiotech), and IL-4 and IL-5 were measured using their respective enzyme-linked immunosorbent assay (ELISA, IL-4: Enzo #ADI-900-043, IL-5: R&D system #M5000).
The results are shown in Table 8 and FIG. 22, and each secretion inhibitory activity was calculated in the same manner as in [Equation 2] of Experimental Example 4.
In addition, the BALF pellets were re-dissolved by adding 0.5 mL of phosphate buffer solution, and then 0.1 mL for each thereof was added to a 96-well plate and centrifuged at 800 rpm for five minutes to attach cells to the bottom (three wells per sample). Then, the cells were stained with Diff Quik staining solution (Sysmex) and the number of cells was measured with […].
The results were shown in FIG. 21, the SPSS program was used for statistical processing, the Levene test was performed for equal-variance test, and the significance test was performed through one-way ANOVA.

[8] = mouse splenocytes, compound 1 μM
[9] = RBL-2H3, read-out: IL-4 secretion inhibition IC50 (μM)
[10] = Severe acute respiratory syndrome coronavirus 2, Vero, 24 h
[11] = Severe acute respiratory syndrome coronavirus 2, Vero cells, 24 hours infection
[12] = RBL-2H3 cells, 1 uM A23187, read-out: IL-4 secretion inhibition IC50
[13] = Example 73 10 mg/kg oral, dexamethasone 1 mg/kg intraperitoneal
[14] = Mean ± S.D., n = 5, Example 73 10 mg/kg oral, dexamethasone 1 mg/kg intraperitoneal, ten days

SMILES | IL-5 pg/ml [1, 8] [pg/mL] | IL-4 pg/ml [2, 8] [pg/mL] | SI (Selectivity Index, CC50/IC50) (SARS-COV-2) | IC50 [4] [µM] | CC50 (in vitro [5]) [µM] | inhibition at 1 µM [1, 8] [%] | inhibition at 1 µM [2, 8] [%] | IC50 (SARS-COV-2; [11]) [µM] | IC50 [3, 12] [µM] | other results
CCCCN(C)c1ncc(-c2c3c(cc4cc(OC)c(OC)cc24)COC3=O)cn1.Cl [Example 76, 9-(2-(butyl(methyl)amino)pyrimidin-5-yl)-6,7-dimethoxynaphtho[2,3-c]furan-1(3H)-one hydrochloride] | 13.4 | 1.2 | 270.89 | – | – | – | – | – | – | inhibition at 1 µM ([1]; Mus musculus): 85.6%; inhibition at 1 µM ([2]; Mus musculus): 99.6%; IC50 [3, 9]: 4.05 µM
COc1cc2cc3c(c(-c4ccc(N(C)c5cccc(C#N)c5)nc4)c2cc1OC)C(=O)OC3.Cl [Example 237, 3-((5-(6,7-dimethoxy-3-oxo-1,3-dihydronaphtho[2,3-c]furan-4-yl)pyridin-2-yl)(methyl)amino)benzonitrile] | – | – | 61.98 | 0.794 | > 50 | – | – | – | – | SI (Selectivity Index, CC50/IC50) [4]: 1277; IC50 (SARS-COV-2; [10]): 0.81 µM; CC50 at 24 h (in vitro [6]): 1020 µM
NC(=O)c1ncn([C@@H]2O[C@H](CO)[C@@H](O)[C@H]2O)n1 [Ribavirin] | – | – | – | 64.8 | – | – | – | – | – | CC50 at 24 h (in vitro [6]): 1270 µM
CCC(C)CN(C)c1ncc(-c2c3c(cc4cc(OC)c(OC)cc24)COC3=O)cn1 (stereo not shown) [Example 65, 6,7-dimethoxy-9-(2-(methyl(2-methylbutyl)amino)pyrimidin-5-yl)naphtho[2,3-c]furan-1(3H)-one] | 25.2 | 1.5 | 19.30 | – | > 50 | 73 | 99.5 | 2.59 | 2.18 | –
COc1cc2cc3c(c(-c4cnc(N5CCSCC5)nc4)c2cc1OC)C(=O)OC3 [Example 63, 6,7-dimethoxy-9-(2-thiomorpholinopyrimidin-5-yl)naphtho[2,3-c]furan-1(3H)-one] | 17.2 | 1.3 | 23.56 | – | > 50 | 81.6 | 99.6 | 2.12 | 4.23 | –
COc1cc2cc3c(c(-c4cc5c(cc4OC(=O)c4ccccn4)OCO5)c2cc1OC)C(=O)OC3 [Example 169, 6-(6,7-dimethoxy-3-oxo-1,3-dihydronaphtho[2,3-c]furan-4-yl)benzo[d][1,3]dioxol-5-yl picolate] | 67.1 | 46.7 | 40.73 | – | > 50 | 27.9 | 86.3 | 1.23 | 2.34 | –
COc1cc2cc3c(c(-c4cnc(N(C)C5CCCC5)nc4)c2cc1OC)C(=O)OC3.Cl [Example 84, 9-(2-(cyclopentyl(methyl)amino)pyrimidin-5-yl)-6,7-dimethoxynaphtho[2,3-c]furan-1(3H)-one hydrochloride] | 11.2 | 1.1 | 237.53 | – | > 50 | – | – | – | – | inhibition at 1 µM ([1]; Mus musculus): 88%; inhibition at 1 µM ([2]; Mus musculus): 99.7%; IC50 (SARS-COV-2; [10]): 0.21 µM; IC50 [3, 9]: 5.23 µM
COc1cc2cc3c(c(-c4ccc(N(C)C5Cc6ccccc6C5)nc4)c2cc1OC)C(=O)OC3 [Example 194, 9-(6-((2,3-dihydro-1H-indan-2-yl)(methyl)amino)pyridin-3-yl)-6,7-dimethoxynaphtho[2,3-c]furan-1(3H)-one] | – | – | 33.63 | 0.965 | > 50 | – | – | 1.49 | – | SI (Selectivity Index, CC50/IC50) [4]: 48785; CC50 at 24 h (in vitro [6]): 47100 µM
CCN(CC)CCCC(C)Nc1ccnc2cc(Cl)ccc12 (stereo not shown) [Chloroquine] | – | – | – | 21.8 | – | – | – | – | – | CC50 (in vitro [6]): 104 µM
COc1cc2cc3c(c(-c4cnc(N(CC(C)C)CC(C)C)nc4)c2cc1OC)C(=O)OC3.Cl [Example 86, 9-(2-(diisobutylamino)pyrimidin-5-yl)-6,7-dimethoxynaphtho[2,3-c]furan-1(3H)-one hydrochloride] | 71.0 | 96.0 | 0.75 | – | 19.2 | – | – | – | – | inhibition at 1 µM ([1]; Mus musculus): 23.7%; inhibition at 1 µM ([2]; Mus musculus): 71.8%; IC50 (SARS-COV-2; [10]): 25.7 µM; IC50 [3, 9]: 2.21 µM
COc1cc2cc3c(c(-c4cnc(N5CCCC(C)C5)nc4)c2cc1OC)C(=O)OC3 (stereo not shown) [Example 59, 6,7-dimethoxy-9-(2-(3-methylpiperidin-1-yl)pyrimidin-5-yl)naphtho[2,3-c]furan-1(3H)-one] | 51.9 | 71.6 | 20.79 | – | > 50 | 44.3 | 79 | 2.4 | 2.35 | –
CCCCN(CCCC)c1ncc(-c2c3c(cc4cc(OC)c(OC)cc24)COC3=O)cn1 [Example 73, 9-(2-(dibutylamino)pyrimidin-5-yl)-6,7-dimethoxynaphtho[2,3-c]furan-1(3H)-one] | 74.1 | 86.3 | 6.53 | – | > 50 | 20.4 | 74.7 | 7.66 | 3.19 | number of eosinophils in BALF ([7]; 10 mg/kg oral, ten days): significantly reduced; BALF IL-4 Secretion inhibitory ability % [7, 13]: (51.3%); BALF IL-5 Secretion inhibitory ability % [7, 13]: (33.7%); BALF IgE Secretion inhibitory ability % [7, 13]: (24.3%); BALF IL-4 pg/ml [7, 14]: 64.9 ± 35.025 pg/mL; BALF IL-5 pg/ml [7, 14]: 20.7 ± 13.46 pg/mL; BALF IgE [7, 14]: 10.5 ± 3.282 ng/mL
